What was measured:
β2 receptor = target: T1, β2 receptor (Homo sapiens, UniProt P07550); test: Alternative adrenergic β2 mediated cAMP production in H292 cells (60 minutes with test compound); type: cell-based
T1 construct: endogenous in cells; host or cells: H292 cells
Method: Alternative Adrenergic (β2 Mediated cAMP Production
H292 cells were grown in 225 cm2 flasks incubator at 37° C., 5% CO2 in RPMI medium containing, 10% (v/v) FBS (foetal bovine serum) and 2 mM L-glutamine.
Adherent H292 cells were removed from tissue culture flasks by treatment with Accutase™ cell detachment solution for 15 minutes. Flasks were incubated for 15 minutes in a humidified incubator at 37° C., 5% CO2. Detached cells were re-suspended in RPMI media (containing 10% (v/v) FBS and 2 mM L-glutamine) at 0.05×10^6 cells per mL. 5000 cells in 100 μL were added to each well of a tissue-culture-treated 96-well plate and the cells incubated overnight in a humidified incubator at 37° C., 5% CO2. The culture media was removed and cells were washed twice with 100 μL assay buffer and replaced with 50 μL assay buffer (HBSS solution containing 10 mM HEPES pH7.4 and 5 mM glucose). Cells were rested at room temperature for 20 minutes after which time 25 μL of rolipram (1.2 mM made up in assay buffer containing 2.4% (v/v) dimethylsulphoxide) was added. Cells were incubated with rolipram for 10 minutes after which time test compounds were added and the cells were incubated for 60 minutes at room temperature. The final rolipram concentration in the assay was 300 μM and final vehicle concentration was 1.6% (v/v) dimethylsulphoxide. The reaction was stopped by removing supernatants, washing once with 100 μL assay buffer and replacing with 50 μL lysis buffer. The cell monolayer was frozen at −80° C. for 30 minutes (or overnight).
The concentration of cAMP (cyclic adenosine monophosphate) in the cell lysate was determined using AlphaScreen™ methodology. The frozen cell plate was thawed for 20 minutes on a plate shaker then 10 μL of the cell lysate was transferred to a 96-well white plate. 40 μL of mixed AlphaScreen™ detection beads pre-incubated with biotinylated cAMP, was added to each well and the plate incubated at room temperature for 10 hours in the dark. The AlphaScreen™ signal was measured using an EnVision spectrophotometer (Perkin-Elmer Inc.) with the recommended manufacturer's settings. cAMP concentrations were determined by reference to a calibration curve determined in the same experiment using standard cAMP concentrations. Concentration response curves for agonists were constructed and data was fitted to a four parameter logistic equation to determine both the pEC50 and Intrinsic Activity. […]

[1] = target: T2, recombinant human α1D receptor (Homo sapiens, UniProt P25100); test: Adrenergic α1D selectivity assay, [3H]-prazosin binding to HEK293 membranes; conditions: read-out: α1 bind pIC50 (converted)
T2 construct: expressed in transfected cells; host or cells: HEK293
T2 sequence (P25100 1-572): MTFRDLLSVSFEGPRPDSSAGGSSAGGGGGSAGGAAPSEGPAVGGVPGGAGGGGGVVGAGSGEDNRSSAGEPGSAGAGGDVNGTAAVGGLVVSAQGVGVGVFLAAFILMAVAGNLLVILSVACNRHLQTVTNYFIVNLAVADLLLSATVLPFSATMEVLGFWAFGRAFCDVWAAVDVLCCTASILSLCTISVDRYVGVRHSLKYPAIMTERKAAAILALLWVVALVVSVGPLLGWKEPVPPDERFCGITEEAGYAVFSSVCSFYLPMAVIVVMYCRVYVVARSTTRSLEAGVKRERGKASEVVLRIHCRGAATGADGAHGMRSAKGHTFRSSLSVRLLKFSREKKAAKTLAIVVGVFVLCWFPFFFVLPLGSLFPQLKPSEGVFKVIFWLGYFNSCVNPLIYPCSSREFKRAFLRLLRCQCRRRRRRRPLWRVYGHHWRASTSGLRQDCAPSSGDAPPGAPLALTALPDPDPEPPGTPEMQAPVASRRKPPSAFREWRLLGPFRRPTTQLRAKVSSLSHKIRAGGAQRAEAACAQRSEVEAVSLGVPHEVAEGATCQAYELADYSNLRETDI
Method: Membranes were prepared from human embryonic kidney 293 (HEK293) cells expressing recombinant human α1D receptor. These were diluted in Assay Buffer (50 mM HEPES, 1 mM EDTA, 0.1% gelatin, pH 7.4) to provide a final concentration of membranes that gave a clear window between maximum and minimum specific binding.
(§1) Assays were performed in U-bottomed 96-well polypropylene plates. 10 μL [^3H]-prazosin (0.3 nM final concentration) and 10 μL of test compound (10× final concentration) were added to each test well. For each assay plate 8 replicates were obtained for [^3H]-prazosin binding in the presence of 10 μL vehicle (10% (v/v) DMSO in Assay Buffer; defining maximum binding) or 10 μL BMY7378 (10 μM final concentration; defining non-specific binding (NSB)). Membranes were then added to achieve a final volume of 100 μL. The plates were incubated for 2 hours at room temperature and then filtered onto PEI coated GF/B filter plates, pre-soaked for 1 hour in Assay Buffer, using a 96-well plate Tomtec cell harvester. Five washes with 250 μL wash buffer (50 mM HEPES, 1 mM EDTA, pH 7.4) were performed at 4° C. to remove unbound radioactivity. The plates were dried then sealed from underneath using Packard plate sealers and MicroScint-O (50 μL) was added to each well. The plates were sealed (TopSeal A) and filter-bound radioactivity was measured with a scintillation counter (TopCount, Packard BioScience) using a 3-minute counting protocol.
(§2) Total specific binding (B0) was determined by subtracting the mean NSB from the mean maximum binding. NSB values were also subtracted from values from all other wells.

[2] = target: T3, recombinant human adrenergic beta 1 receptors (Homo sapiens, UniProt P08588); test: Adrenergic β1 selectivity assay, [125I]-Iodocyanopindolol binding to membranes; conditions: inhibition of [125I]-Iodocyanopindolol binding (0.036 nM); read-out: β1 bind pIC50 (converted)
T3 construct: purchased Euroscreen
T3 sequence (P08588 whole entry): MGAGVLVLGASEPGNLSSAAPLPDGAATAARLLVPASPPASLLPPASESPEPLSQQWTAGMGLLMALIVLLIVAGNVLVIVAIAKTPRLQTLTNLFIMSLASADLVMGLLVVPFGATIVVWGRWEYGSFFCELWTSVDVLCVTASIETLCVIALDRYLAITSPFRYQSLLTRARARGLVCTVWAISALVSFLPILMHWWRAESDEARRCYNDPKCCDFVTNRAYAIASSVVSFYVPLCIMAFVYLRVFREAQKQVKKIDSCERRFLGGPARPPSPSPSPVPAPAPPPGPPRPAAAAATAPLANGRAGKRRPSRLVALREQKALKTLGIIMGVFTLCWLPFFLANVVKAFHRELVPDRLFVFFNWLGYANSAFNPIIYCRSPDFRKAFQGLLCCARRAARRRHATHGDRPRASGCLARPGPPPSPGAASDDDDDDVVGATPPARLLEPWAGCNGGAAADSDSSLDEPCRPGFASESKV
Method: (§3) Membranes containing recombinant human adrenergic beta 1 receptors were obtained from Euroscreen. These were diluted in Assay Buffer (50 mM HEPES, 1 mM EDTA, 120 mM NaCl, 0.1% gelatin, pH 7.4) to provide a final concentration of membranes that gave a clear window between maximum and minimum specific binding.
as §1, with “[^125I]-Iodocyanopindolol (0.036” for “[^3H]-prazosin (0.3”, “[^125I]-Iodocyanopindolol” for “[^3H]-prazosin”, “Propranolol” for “BMY7378”, “EDTA, 120 mM NaCl,” for “EDTA,”
as §2

[3] = target: T4, recombinant human Dopamine Subtype D2s receptors (Homo sapiens, UniProt P14416); test: Dopamine D2 selectivity assay, [3H]-spiperone binding to membranes; conditions: read-out: D2 bind pIC50 (converted)
T4 construct: purchased Perkin Elmer
T4 sequence (P14416 1-414 isoform P14416-2): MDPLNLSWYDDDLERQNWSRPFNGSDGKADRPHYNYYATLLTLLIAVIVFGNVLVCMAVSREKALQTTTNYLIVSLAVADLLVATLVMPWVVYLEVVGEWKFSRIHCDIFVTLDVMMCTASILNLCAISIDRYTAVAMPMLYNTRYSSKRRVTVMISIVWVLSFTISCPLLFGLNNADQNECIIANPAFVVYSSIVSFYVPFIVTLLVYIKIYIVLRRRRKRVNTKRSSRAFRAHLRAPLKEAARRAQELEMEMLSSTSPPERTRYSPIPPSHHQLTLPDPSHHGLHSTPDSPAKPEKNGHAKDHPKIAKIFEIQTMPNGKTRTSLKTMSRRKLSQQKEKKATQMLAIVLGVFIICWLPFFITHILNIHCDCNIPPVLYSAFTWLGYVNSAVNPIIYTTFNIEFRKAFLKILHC
Method: as §3, with “human Dopamine Subtype D2s” for “human adrenergic beta 1”, “from Perkin Elmer.” for “from Euroscreen.”, “[…]” for “1 mM”
Assays were performed in U-bottomed 96-well polypropylene plates. 30 μL [^3H]-spiperone (0.16 nM final concentration) and 30 μL of test compound (10× final concentration) were added to each test well. For each assay plate 8 replicates were obtained for [^3H]-spiperone binding in the presence of 30 μL vehicle (10% (v/v) DMSO in Assay Buffer; defining maximum binding) or 30 μL Haloperidol (10 μM final concentration; defining non-specific binding (NSB)). Membranes were then added to achieve a final volume of 300 μL. The plates were incubated for 2 hours at room temperature and then filtered onto PEI coated GF/B filter plates, pre-soaked for 1 hour in Assay Buffer, using a 96-well plate Tomtec cell harvester. Five washes with 250 μL wash buffer (50 mM HEPES, 1 mM EDTA, 120 mM NaCl, pH 7.4) were performed at 4° C. to remove unbound radioactivity. The plates were dried then sealed from underneath using Packard plate sealers and MicroScint-O (50 μL) was added to each well. The plates were sealed (TopSeal A) and filter-bound radioactivity was measured with a scintillation counter (TopCount, Packard BioScience) using a 3-minute counting protocol.
as §2

T1 sequence (P07550 whole entry): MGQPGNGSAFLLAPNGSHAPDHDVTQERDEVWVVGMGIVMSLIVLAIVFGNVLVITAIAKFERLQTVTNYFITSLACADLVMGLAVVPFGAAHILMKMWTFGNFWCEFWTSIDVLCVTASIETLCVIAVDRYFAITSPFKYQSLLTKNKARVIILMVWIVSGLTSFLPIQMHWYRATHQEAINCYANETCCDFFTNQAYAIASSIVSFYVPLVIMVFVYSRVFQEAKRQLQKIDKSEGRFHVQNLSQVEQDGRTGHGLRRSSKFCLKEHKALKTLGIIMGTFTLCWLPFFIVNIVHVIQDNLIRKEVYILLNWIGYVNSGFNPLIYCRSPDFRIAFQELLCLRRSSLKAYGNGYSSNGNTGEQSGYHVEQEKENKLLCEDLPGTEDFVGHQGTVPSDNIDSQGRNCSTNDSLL

EC50 (β2 receptor; cAMP, 60 minutes incubation with compound, 300 μM rolipram, read-out: β2 pEC50 (converted)): 3.98 nM | β2 Int Act (β2 receptor; fraction relative to the maximum activity determined for formoterol, 60 minutes incubation): 0.9 | IC50 [1]: 2000 nM | IC50 [2]: 1580 nM | IC50 [3]: > 10000 nM
Structure (SMILES): CCN(CC)CCN(CCNC[C@H](O)c1ccc(O)c2[nH]c(=O)sc12)C(=O)CCOCCc1cccc(Cl)c1 [Example 9, 3-[2-(3-Chlorophenyl)ethoxy]-N-[2-(diethylamino)ethyl]-N-(2-{[(2R)-2-hydroxy-2-(4-hydroxy-2-oxo-2,3-dihydro-1,3-benzothiazol-7-yl)ethyl]amino}ethyl)propanamide]

Source: patent US20090203753A1, “7-(2-amino-1-hydroxy-ethyl)-4-hydroxybenzothiazol-2(3H)-one-derivatives as beta2 adrenoreceptor agonists” (AstraZeneca AB, priority 2005, published 2009)
